Experimental data from ChEMBL document CHEMBL1155152, “Increased expression of ampC in Pseudomonas aeruginosa mutants selected with ciprofloxacin” (2007).
In brackets after ≈: the same amount, converted by molar mass.

What was measured:
Format in all cases: functional
Pseudomonas aeruginosa [1] = experiment: Increase in ampDh3 gene expression in Pseudomonas aeruginosa 164M1-94C overexpressing mexCD-oprJ genes by RT-PCR relative to wild-type
Pseudomonas aeruginosa [2] = experiment: Increase in ampD gene expression in Pseudomonas aeruginosa 164M1-94C overexpressing mexCD-oprJ genes by RT-PCR relative to wild-type
Pseudomonas aeruginosa [3] = experiment: Increase in ampD gene expression in Pseudomonas aeruginosa 164M1 by RT-PCR relative to wild-type
Pseudomonas aeruginosa [4] = experiment: Increase in ampDh2 gene expression in Pseudomonas aeruginosa 164M1 by RT-PCR relative to wild-type
Pseudomonas aeruginosa [5] = experiment: Antibacterial activity against Pseudomonas aeruginosa 164M1-94C overexpressing mexCD-oprJ genes
Pseudomonas aeruginosa [6] = experiment: Increase in ampC gene expression in Pseudomonas aeruginosa 164M1 by RT-PCR relative to wild-type
Pseudomonas aeruginosa [7] = experiment: Antibacterial activity against Pseudomonas aeruginosa 164M1
Pseudomonas aeruginosa [8] = experiment: Increase in ampDh2 gene expression in Pseudomonas aeruginosa 164M1-94C overexpressing mexCD-oprJ genes by RT-PCR relative to wild-type
Pseudomonas aeruginosa [9] = experiment: Increase in ampC gene expression in mexCD-oprJ overexpressing Pseudomonas aeruginosa 164M1-94C harboring p26PAD1 plasmid containing ampD gene by RT-PCR relative to wild-type
Pseudomonas aeruginosa [10] = experiment: Increase in ampDh3 gene expression in Pseudomonas aeruginosa 164M1 by RT-PCR relative to wild-type
Pseudomonas aeruginosa [11] = experiment: Increase in ampC gene expression in Pseudomonas aeruginosa 164M1-84C overexpressing mexCD-oprJ genes by RT-PCR relative to wild-type
Pseudomonas aeruginosa [12] = experiment: Increase in ampDh3 gene expression in Pseudomonas aeruginosa 164M1-84C overexpressing mexCD-oprJ genes by RT-PCR relative to wild-type
Pseudomonas aeruginosa [13] = experiment: Increase in ampD gene expression in Pseudomonas aeruginosa 164M1-84C overexpressing mexCD-oprJ genes by RT-PCR relative to wild-type
Pseudomonas aeruginosa [14] = experiment: Increase in ampC gene expression in Pseudomonas aeruginosa 164M1-94C overexpressing mexCD-oprJ genes by RT-PCR relative to wild-type
Pseudomonas aeruginosa [15] = experiment: Increase in ampC gene expression in Pseudomonas aeruginosa 164M1 harboring p26PAD1 plasmid containing ampD gene by RT-PCR relative to wild-type
Pseudomonas aeruginosa [16] = experiment: Increase in ampDh2 gene expression in Pseudomonas aeruginosa 164M1-84C overexpressing mexCD-oprJ genes by RT-PCR relative to wild-type
Pseudomonas aeruginosa [17] = experiment: Antibacterial activity against Pseudomonas aeruginosa 164M1 harboring p26PAD1 plasmid containing ampD gene
Pseudomonas aeruginosa [18] = experiment: Antibacterial activity against Pseudomonas aeruginosa 164
Pseudomonas aeruginosa [19] = experiment: Antibacterial activity against Pseudomonas aeruginosa 164M1-84C overexpressing mexCD-oprJ genes
Pseudomonas aeruginosa [20] = experiment: Antibacterial activity against mexCD-oprJ overexpressing Pseudomonas aeruginosa 164M1-84C harboring p26PAD1 plasmid containing ampD gene
Pseudomonas aeruginosa [21] = experiment: Antibacterial activity against mexCD-oprJ overexpressing Pseudomonas aeruginosa 164M1-94C harboring p26PAD1 plasmid containing ampD gene

With `CC(C)(O/N=C(\C(=O)N[C@@H]1C(=O)N2C(C(=O)[O-])=C(C[n+]3ccccc3)CS[C@H]12)c1csc(N)n1)C(=O)O` [CEFTAZIDIME] the “fold change (FC)” value (Pseudomonas aeruginosa [1]) was 3.1, the “fold change (FC)” value (Pseudomonas aeruginosa [2]) was 1.1 and the “fold change (FC)” value (Pseudomonas aeruginosa [3]) was 1.3. The “fold change (FC)” value (Pseudomonas aeruginosa [4]) was 2.6, the MIC (Pseudomonas aeruginosa [5]) was 48 mg/L (≈ 87.8 µM) and the “fold change (FC)” value (Pseudomonas aeruginosa [6]) was 99. The MIC (Pseudomonas aeruginosa [7]) was 96 mg/L (≈ 176 µM), the “fold change (FC)” value (Pseudomonas aeruginosa [8]) was 2.6 and the “fold change (FC)” value (Pseudomonas aeruginosa [9]) was 0.91. For the same compound, the “fold change (FC)” value (Pseudomonas aeruginosa [10]) was 2.1, the “fold change (FC)” value (Pseudomonas aeruginosa [11]) was 1324 and the “fold change (FC)” value (Pseudomonas aeruginosa [12]) was 1.6. For the same compound, the “fold change (FC)” value (Pseudomonas aeruginosa [13]) was 1.2, the “fold change (FC)” value (Pseudomonas aeruginosa [14]) was 1165 and the “fold change (FC)” value (Pseudomonas aeruginosa [15]) was 1.1. The “fold change (FC)” value (Pseudomonas aeruginosa [16]) was 1.5, the MIC (Pseudomonas aeruginosa [17]) was 4 mg/L (≈ 7.32 µM) and the MIC (Pseudomonas aeruginosa [18]) was 2 mg/L (≈ 3.66 µM). For the same compound, the MIC (Pseudomonas aeruginosa [19]) was 48 mg/L (≈ 87.8 µM), the MIC (Pseudomonas aeruginosa [20]) was 2 mg/L (≈ 3.66 µM) and the MIC (Pseudomonas aeruginosa [21]) was 2 mg/L (≈ 3.66 µM).
